Here are results for four substances from patent US20110098492A1, “CLEANING COMPOSITIONS CONTAINING MID-RANGE ALKOXYLATES” (priority 2008, published 2011).

Data set [1] can be described thus: Pour point test (ASTM D97). In kind it is physicochemical. How it is done:
C) Pour Point Test: This test is carried out according to the protocol of ASTM Test D97.

The nature of data set [2]: Gel range in water at 23 C. Also on record: key: L = Liquid; G = Gel; TL = Thick Liquid. In kind it is physicochemical. As for the experimental part:
One way the industry expresses a tendency of a surfactant to cause gels is a “gel range.” A typical gel range describes a percentage of samples that form gels, out of a number of samples, each having increasing surfactant concentration. […] A sample forms a gel when it is non-pourable for at least five seconds at 23° centigrade (° C.) when its container is inverted 180° so the container's open spout or mouth faces down. For many applications, a surfactant ideally has no gel range.
D) Gel range: Ten surfactant solutions are made using 0%, 10%, 20%, 30%, 40%, 50%, 60%, 70%, 80%, 90% water. […] The test is run at 23 C.

Data set [3] can be described thus: Cleaning of cross-linked petroleum grease (1-octadecene soil). The conditions noted are these: for Arbitrary Gray Value: 1% by weight in water, cross-linked 1-octadecene soil. The text has this:
The same procedure used above for cross-linked triglycerides was used, except that 1-octadecene was used instead of Canola Oil.

The nature of data set [4]: Surface tension and critical micelle concentration (Wilhelmy plate). The format is physicochemical. As for the experimental part: B) Surface Tension and Critical Micelle Concentration (CMC) Measurement. For this test the surface tension of a surfactant-water solution is measured while incrementally adding the surfactant to de-ionized water. Results are measured in terms of dyne/centimeters using a Wilhelmy plate. Results are recorded versus surfactant concentration. The Critical Micelle Concentration is the point at which an increase in surfactant concentration no longer results in a change in surface tension.

A short description of data set [5]: Ross-Miles foam height test (ASTM D1173). In kind it is physicochemical. The conditions noted are these: for Ross Miles Foam Height, millimeters, Initial: Initial (0 sec). As for the experimental part:
A) Ross-Miles Foam Height Test: This test is carried out according to the protocol of ASTM […].

A short description of data set [6]: Cleaning of cross-linked triglycerides (Gardner scrubber, soiled vinyl tile). Also on record: key to Arbitrary Gray Value: mean gray value of tile image (ImageJ). The note with it: 120 back-and-forth strokes, higher = better cleaning. As for the experimental part:
Test panels coated with mixtures of triglycerides and cross-linked triglycerides were prepared and evaluated using the following procedure. Cobalt Naphthenate was used as a catalyst to accelerate the oxidation of vegetable oil to give a hard varnish. Carbon black is added to the varnish to enable easy visual comparison of the ability to clean the cross-linked triglyceride from the surface.
Substrate Panels: White Vinyl Floor Tile: Tarket Corporation Azrock™ VS304-3 (6913) cut to 4¼×4¼ inch (to fit the Gardner Linear Motion Scrubber).
Soil Formulation: 100 grams Canola Oil (Food Grade, 100%, Kroger Co. Cincinnati, Ohio 45202); 2 grams Acetylene Carbon Black (Cat #39724, Alfa Aesar; Surface area=74 sq m/g); 20 grams drying agent: Cobalt Naphthenate Solution (Aldrich Cat #54,457-4, CAS #61789-51-3) (Comes as a 6% solution in petroleum solvent); Oven: Convection oven set at 160° F.
Scrubbing Tester: Gardco washability & Wear Tester; Linear Motion Test Equipment; Model D12-V Cat #WA-2164 (Paul N. Gardner Company, Inc. 316 N.E. First Street, Pompano, Beach, Fla. 33060.
Sponges: “Do-It” Cellulose Sponge, 1⅝ in thick, cut to 3″×4″. Manufactured by Bloch/New England for HWI, Fort Wayne, Ind. 46801;
Paint Brushes: Economy Chip Brush 1 Inch. www.lgsourcing.com Model #0106; Item #103407 obtained from Lowes, Inc. L. G. Sourcing, Inc. P.O. Box 1535 North Wilkseboro, N.C. 28659
Reflectance Meter: HunterLab ColorQuest XE
Prepare a stock solution by mixing 98 grams of canola oil (food grade) with 2.0 g acetylene-based carbon black (Cat #39724, Alfa Aesar; Surface area=74 sq m/g). Mix with a disperser at 2000 rpm for 15 min. (We used a Caframo Model BDC 3030 with a 0.50 dispersing blade).
Add 20.0 grams Cobalt Naphthenate Solution and mix well (by hand, using a glass stir rod).
Place 1.6 grams soil per 4×4 inch tile.
Paint to a thin film using a clean 1-inch economy brush. Use several strokes to get to an even coating. Use a clean, dry brush for each application. (After the application, each brush can be cleaned with acetone, dried, and then re-used).
Place in a convection oven set at 160 F for 16 hours. We place the panels in an oven at 4:00 p.m, and then remove the panels at 8:00 a.m. the next morning. Let the panels cool for 1 hour.
Use the panels within 10 days
Place a panel in the Gardner Scrubber
[…] (We use 5.0 grams surfactant diluted to 500 mL water).
Prepare a sponge by rinsing several times in cold tap water. Completely squeeze out the sponge by hand.
After each test, rinse out the sponge 15-20 times (by repeated sorption and squeezing) until there is no noticeable surfactant solution left (usually indicated by a lack of foam).
Pour 500 mL of surfactant solution into a beaker
Place the sponge into the beaker—allowing it to soak up as much surfactant as possible.
Place the sponge into the Gardner Scrubber.
Pour the remaining liquid (approx 400 mL) over the test panel in the scrubber. There should be enough liquid to just cover the test panel.
Program the scrubber to perform 120 back-and-forth strokes (for a total of 240 linear strokes). We define each back-and-forth stroke as “1 stroke”
Remove the panel rinse with tap water
Clean the Gardner scrubber by rinsing with tap water.
Clean the sponge by squeezing it out under tap water 20-30 times until clean.
Remove excess water from the sponge by squeezing as much liquid out as possible.
After the panel is dry, either take pictures (for visual comparison of cleaning) or measure the reflectance using the Xyy mode of a Hunter Colorimeter. Alternatively, the mean gray value can be obtained by taking a picture of the tiles and processing computer image with ImageJ™ software, which is distributed freely by the National Institute of Health (nih.gov).

For a further data set, the system named is Desmondesmus subspicatus. Briefly: Fresh water algal growth inhibition test (OECD 201). The format is cell-based. The note with it: growth rate. The source says:
Organization for Economic Cooperation and Development (OECD): OECD Guidelines for the Testing of Chemicals, “Freshwater Alga and Cyanobacteria, Growth Inhibition Test”, Procedure 201, adopted 23 Mar. 2006; European Economic Community (EEC): […] OECD Guidelines for the Testing of Chemicals, “Freshwater Alga and Cyanobacteria, Growth Inhibition Test”, Procedure 201, adopted 23 Mar. 2006; European Economic Community (EEC): […]

The next data set in a line: Cloud point. In kind it is physicochemical.
A further data set has as its system Daphna magna. In words: 48-hour acute toxicity to Daphnia. The format is in vivo. The source says: The study procedures and test methods were based on the recommendations of the following guidelines: […]
The conditions of data set [7]: background statement on commercial surfactants; cited from earlier work.
Data set [8] is described as follows: Formula stability with LAS, sodium citrate and water. In kind it is physicochemical. Set-up: key to Formula stability: S = Stable; U = Unstable. The text has this:
When mixed with dodecyl benzene sulfonic acid (sodium salt), and sodium citrate in water, the surfactants of the present invention show enhanced formula stability relative to conventional surfactants.

A further data set concerns Sicklepod. In words: Greenhouse herbicide adjuvant efficacy with glyphosate. The format is in vivo. The conditions noted are these: adjuvant 0.25% v/v in spray, visual injury at 18 DAA. How it is done:
Efficacy of Examples 7 and 8 as adjuvants in formulated herbicides is compared to commercially available herbicide packages. Greenhouse field testing is completed. A 480 g ae/L (acid equivalent per liter) formulation of glyphosate isopropylamine with no adjuvants is added to spray vials. These aliquots are diluted to a final volume of 60 ml with tap water, and appropriate amounts of adjuvants are added to the spray solution. The Examples 7 and 8 series are tested at 0.25% v/v in the final spray solution. Treatment rates are: 200, 400, and 600 g ae/ha (“ha” means hectare) and each treatment is replicated three times. Treatments are applied with a tracksprayer. The sprayer utilizes an 8002E spray nozzle, spray pressure of 262 kPa pressure and speed of 2.2 mph to deliver 140 L/Ha. The nozzle height is 46 cm above the pots. Percent visual injury assessments are made at 18 DAA (days after application) on a scale of 0 to 100% as compared to the untreated control plants (where 0 is equal to no injury and 100 is equal to complete death of the plant). Results are shown in Table 10 as % Control of Sicklepod with Glyphosate compared to commercial herbicides.

Consider 2EH(PO)5.5(EO)8 [Example 3], for which the “Pour Point” value in [1] amounted to 44 ° F. Further, the “Gel Range, Percent Surfactant in Water at 23 C.” value (“Gel Range, Percent Surfactant” for short) in data set [2] (10% surfactant in water), in [2] (20% surfactant in water), in data set [2] (30% surfactant in water), in data set [2] (40% surfactant in water), in data set [2] (50% surfactant in water) and in [2] (60% surfactant in water) was “L” each time. The “Gel Range, Percent Surfactant” value is “L” in data set [2] (70% surfactant in water), “TL” in data set [2] (80% surfactant in water) and “L” in data set [2] (90% surfactant in water). Further, the “Arbitrary Gray Value” in data set [3] is recorded as 136. Further, the “cleaning of cross-linked 1-octadecene / mineral oil (in words)” value in data set [3] (compared with Tergitol NP-9) is “equivalent to Tergitol NP-9”. For the same substance, the “Surface Tension” value in data set [4] (0.1 wt % in water) was found to be 31 dyne/centimeters. This substance came in with a Critical Micelle Concentration in data set [4] (in de-ionized water) of 1750 ppm. In addition, the “Ross Miles Foam Height, millimeters, 5 Minutes” value in data set [5] came to 0 millimeters. For the same substance, in [5], the “Ross Miles Foam Height, millimeters, Initial” value is recorded as 45 millimeters.
C9(BO)1(EO)7 [Example 9]: the “Arbitrary Gray Value” in data set [6] (1% by weight in water) came out at 121. In addition, the “Fresh Water algal growth inhibition test with Desmondesmus subspicatus ErC50/0-3” value in the data set with Desmondesmus subspicatus was determined as 21 mg/L. In addition, the cloud point in “Cloud point” came to 53.9 C. In addition, the “48-hour Acute Toxicity to Daphna magna (EC50-50 hour)” value with Daphna magna stood at 6.2 µg/mL.
In the case of “nonylphenoxy (polyoxyethylene-9) [NP-9, reference compound]”, the “Arbitrary Gray Value” is recorded as 108 in [6] (0.5% by weight in water), 177 in data set [6] (1% by weight in water) and 95 in [3]. In addition, the “Pour Point” value in [1] was determined as 30 ° F. Besides, the “gel formation / gel range when mixed with water (in words)” value in data set [7] is on record as “forms resilient, slow-dissolving gels”. Also, the “Gel Range, Percent Surfactant” value in data set [2] (10% surfactant in water) is reported as “L”; in [2] (20% surfactant in water), “L”; in data set [2] (30% surfactant in water) it was “L”; in data set [2] (40% surfactant in water) it was “L”; in data set [2] (50% surfactant in water), “L”; in [2] (60% surfactant in water), “G”. Besides, the “Gel Range, Percent Surfactant” value in data set [2] (70% surfactant in water) is “G”; in data set [2] (80% surfactant in water) it was “G”; in data set [2] (90% surfactant in water) it was “L”. The Formula stability entry in data set [8] (15% LAS/0% Na Cit in water), in data set [8] (15% LAS/1% Na Cit in water), in [8] (15% LAS/2% Na Cit in water) and in [8] (15% LAS/4% Na Cit in water) was “U” throughout. Besides, the “Ross Miles Foam Height, millimeters, 5 Minutes” value in data set [5] is given as 35 millimeters. Further, the “Ross Miles Foam Height, millimeters, Initial” value in [5] stood at 145 millimeters.
For the substance 2EH(PO)5(EO)9 [Example 8], the “Arbitrary Gray Value” in data set [6] (1% by weight in water) was determined as 128. Moreover, the “Fresh Water algal growth inhibition test with Desmondesmus subspicatus ErC50/0-3” value in the data set on Desmondesmus subspicatus is reported as 97.7 mg/L. The “% Control of Sicklepod with Glyphosate” value was determined as 31.7% in the data set on Sicklepod (200 G/ha glyphosate), 73.3% in the data set with Sicklepod (400 G/ha glyphosate) and 75.0% with Sicklepod (600 G/ha glyphosate). Moreover, the “48-hour Acute Toxicity to Daphna magna (EC50-50 hour)” value with Daphna magna is greater than 100 µg/mL.
